We go through 2 molecules from publication PMC4650734, “FV-162 is a novel, orally bioavailable, irreversible proteasome inhibitor with improved pharmacokinetics displaying preclinical efficacy with continuous daily dosing” (Cell Death & Disease, 2015).

In series [1] the test system is CT-L proteasome activity. The series is described as follows: CT-L proteasome activity in RBCs of treated mice. The conditions noted are these: by 24 h after treatment, murine RBCs, data not shown. Format: in vivo, mouse. How it is done: Cells were harvested by centrifugation at 1200 r.p.m. at room temperature. Cell pellets were washed with PBS and lysed with assay lysis buffer (50 mM HEPES (2-[4-(2-hydroxyethyl) piperazin-1-yl]ethanesulfonic acid)), pH 7.5; 150 mM NaCl; 1% Triton X-100; 2 mM ATP). Cell lysates were incubated on ice for 30 min, mixed by vortex every 5 min, and centrifuged at 12 000 × g for 10 min. Supernatants were transferred to a 96-well plate in triplicate. For each assay, 10 μg of total protein were incubated for 1 h at 37 °C with increasing concentrations (0.001–10 μM) of test compound or vehicle control diluted in assay buffer (50 mM Tris-HCl (tris(hydroxymethyl)aminomethane-HCl), pH 7.5; 150 mM NaCl). After incubation, a specific fluorogenic proteasome substrate was added to each assay reaction (40 μM in a total volume of 100 μl). N-Succinyl-Leu-Leu-Val-Tyr-7-amino-4-methylcoumarin (Suc-Leu-Leu-Val-Tyr-AMC) was used for measuring CT-L activity, t-butoxycarbonyl- Leu-Arg-Arg-7-amino-4-methylcoumarin (Boc-Leu-Arg-Arg-AMC) for T-L activity, and benzyloxycarbonyl-L-leucyl-L-leucyl-L-glutamyl-7-amino-4-methylcoumarin (Z-Leu-Leu-Glu-AMC) for C-L activity. The excitation wavelength was 360 nm and the fluorescence emission of free AMC released during the enzymatic reaction was detected at 460 nm on a SpectraMax M5 fluorescent spectrophotometric plate reader (Molecular Devices, Sunnyvale, CA, USA). AMC release rate was measured at 37 °C in a kinetic mode, recording every 5 min for 30 min.
Five-to-six-week-old male NOD/SCID mice were administered vehicle (5% DMSO, 20% Cremophor) or proteasome inhibitors either intravenously or by oral gavage (3 mice per group), and 20–50 μl of venous blood were collected from each mouse over 24 h. Blood samples were mixed with heparin (APP Pharmaceuticals; Schaumburg, IL, USA) in 0.5-ml tubes in accordance with the manufacturer's instructions. After centrifugal separation at 3000 × g for 10 min, RBCs in the bottom layer were transferred into a new tube and stored at −70 °C until use. RBCs were lysed with assay lysis buffer and incubated on ice for 30 min, mixing by vortex every 5 min, and centrifuged at 12 000 × g for 10 min. Supernatants were transferred to a 96-well plate and proteasome activity was measured as described in 'Cell lysates' section.

Series [2] has as its system patients with multiple myeloma. The note with it: infusion over 30 min; cited from earlier work.
Series [3] can be described thus: Metabolic stability assay with pooled mouse liver microsomes. The conditions noted are these: 5 μM compound, 15 min, 0.5 mg/ml pooled mouse liver microsomes, LC/MS. Format: in vitro ADME. How it is done:
Pooled liver microsomes isolated from male CD-1 mice were purchased from BD Biosciences (San Jose, CA, USA). Metabolic stability was calculated by measuring the percentage of 5 μM of each test compound remaining after 15 min incubation with 0.5 mg/ml liver microsomes at 37 °C. Compounds were detected by LC/MS using a Xevo quadrupole time-of-flight mass spectrometer and an ACQUITY ultra-performance LC (UPLC) system (Waters Inc., Milford, MA, USA) to determine relative peak areas of each parent compound.

Series [4] concerns rats. The note with it: cited from earlier work.

SMILES strings stand for the structures.

As to `CC(C)C[C@H](NC(=O)[C@H](Cc1ccccc1)NC(=O)c1cnccn1)B(O)O` [bortezomib, reference compound], in series [1], the “proteasome activity recovered, of baseline levels” value is reported as greater than 50%.

Take `CC(C)C[C@H](NC(=O)[C@H](CCc1ccccc1)NC(=O)CN1CCOCC1)C(=O)N[C@@H](Cc1ccccc1)C(=O)N[C@@H](CC(C)C)C(=O)[C@@]1(C)CO1` [carfilzomib]: in series [2], the “dose tolerated without adverse effects” value is “up to 56 mg/m^2”. In addition, the “percentage of parent compound remaining” value in series [3] worked out at 70%. The “rats for which dose was lethal” value in series [4] (8 mg/kg, bolus infusion, rats) is on record as 44%. Also, in series [4] (rat, in vivo), the “toxicity of 30 min infusion” value was “not toxic”.
